Legend:
[1] = molecular target: Cyclin-dependent kinase 1 (Homo sapiens, UniProt P06493)
Description: Inhibitory activity against human cyclin-dependent kinase 1 (CDK1)

[2] = molecular target: Cyclin-dependent kinase 2 (Homo sapiens, UniProt P24941)
Description: Inhibitory activity against human cyclin-dependent kinase 2 (CDK2)

Cyclin-dependent kinase 1, sequence (P06493 whole entry): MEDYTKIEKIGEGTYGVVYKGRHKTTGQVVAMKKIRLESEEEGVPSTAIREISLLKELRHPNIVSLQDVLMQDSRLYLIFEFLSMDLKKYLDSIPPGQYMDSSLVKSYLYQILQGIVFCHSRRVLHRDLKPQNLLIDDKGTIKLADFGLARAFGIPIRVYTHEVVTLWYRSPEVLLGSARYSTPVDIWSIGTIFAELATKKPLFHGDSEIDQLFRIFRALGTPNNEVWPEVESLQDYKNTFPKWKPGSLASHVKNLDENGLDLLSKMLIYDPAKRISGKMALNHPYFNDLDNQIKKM

`CC(C)(C)c1ccc2c(c1)NC(=O)/C2=N\Nc1ccc(S(N)(=O)=O)cc1` was tested. Which IC50 [1] did it give?
Its IC50 is greater than 10 µM.

And the IC50 [2]?
Its IC50 is greater than 10 µM.

For `CC(C)c1ccc2c(c1)NC(=O)/C2=N/Nc1ccc(S(N)(=O)=O)cc1` [GW300653X], which IC50 [1] is on record?
The IC50 was 0.79 µM.

And the IC50 [2]?
Its IC50 is 0.075 µM.

`Cc1ccc2c(c1)C(=NNc1ccc(S(N)(=O)=O)cc1)C(=O)N2` [GW275944X] was tested. Which IC50 [1] did it give?
Its IC50 is 0.33 µM.

What about the IC50 [2] of the same molecule?
Its IC50 is 0.046 µM.

`O=C1Nc2ccc3ncsc3c2/C1=C/Nc1ccc(S(=O)(=O)N[n+]2ccc3ccccc3c2)cc1` was tested. Which IC50 [1] did it give?
Its IC50 is 0.042 µM.

What does the source list for `O=C1Nc2ccc(-c3cnco3)cc2/C1=C/Nc1ccc2c(c1)CS(=O)(=O)C2`?
IC50 [1]: 0.019 µM; IC50 [2]: 0.0089 µM

For `NS(=O)(=O)c1ccc(NN=C2C(=O)Nc3ccc(F)cc32)cc1`, which IC50 [1] is on record?
Its IC50 is 0.29 µM.

And the IC50 [2]?
The IC50 was 0.034 µM.

Which results are given for `NS(=O)(=O)c1ccc(NN=C2C(=O)Nc3ccc(S(N)(=O)=O)cc32)cc1`?
IC50 [1]: 0.17 µM; IC50 [2]: 0.043 µM

Which IC50 [1] does the source give for `COc1ccc2c(c1)C(=NNc1ccc(S(N)(=O)=O)cc1)C(=O)N2` here?
Its IC50 is 0.21 µM.

What about the IC50 [2] of the same molecule?
Its IC50 is 0.012 µM.

Which IC50 [1] does the source give for `Cc1ccc2c(c1Cl)C(=NNc1ccc(S(N)(=O)=O)cc1)C(=O)N2` here?
Its IC50 is 0.25 µM.

What about the IC50 [2] of the same molecule?
Its IC50 is 0.013 µM.

For `CC(C)CC(=O)c1ccc2c(c1)/C(=C/Nc1ccc(S(N)(=O)=O)cc1)C(=O)N2`, which IC50 [1] is on record?
Its IC50 is 0.016 µM.

What about the IC50 [2] of the same molecule?
The IC50 was 0.0019 µM.

`NS(=O)(=O)c1ccc(NN=C2C(=O)Nc3cccc(-c4cc[nH]n4)c32)cc1` was tested. Which IC50 [1] did it give?
The IC50 was 0.25 µM.

What about the IC50 [2] of the same molecule?
Its IC50 is 0.019 µM.

`CCOC(=O)c1cccc2c1/C(=C/Nc1ccc(S(N)(=O)=O)cc1)C(=O)N2` was tested. Which IC50 [1] did it give?
The IC50 was 0.13 µM.

What about the IC50 [2] of the same molecule?
Its IC50 is 0.0089 µM.

For `NS(=O)(=O)c1ccc(N/C=C2\C(=O)Nc3ccc(-c4cnco4)cc32)cc1`, which IC50 [1] is on record?
The IC50 was 0.017 µM.

And the IC50 [2]?
Its IC50 is 0.0025 µM.

For `CN(C)C(=O)c1ccc2c(c1)C(=NNc1ccc(S(N)(=O)=O)cc1)C(=O)N2`, which IC50 [1] is on record?
The IC50 was 0.13 µM.

What about the IC50 [2] of the same molecule?
Its IC50 is 0.017 µM.

For `NS(=O)(=O)c1ccc(NN=C2C(=O)Nc3cccc(CCc4ccncc4)c32)cc1`, which IC50 [1] is on record?
Its IC50 is 0.29 µM.

And the IC50 [2]?
Its IC50 is 0.021 µM.

With `NS(=O)(=O)c1ccc(NN=C2C(=O)Nc3ccc4[nH]ncc4c32)cc1` as the molecule, how does the IC50 [1] read?
The IC50 was 0.12 µM.

What about the IC50 [2] of the same molecule?
Its IC50 is 0.013 µM.

For `NC(=O)c1cccc2c1C(=NNc1ccc(S(N)(=O)=O)cc1)C(=O)N2`, which IC50 [1] is on record?
The IC50 was greater than 1 µM.

What about the IC50 [2] of the same molecule?
The IC50 was greater than 1 µM.

How did the IC50 [1] turn out when `NS(=O)(=O)c1ccc(N/N=C2\C(=O)Nc3ccc4ncccc4c32)cc1` [GW305178X] was run?
The IC50 was 0.012 µM.

And the IC50 [2]?
The IC50 was 0.0016 µM.

With `NS(=O)(=O)c1ccc(NN=C2C(=O)Nc3cc(Br)ccc32)cc1` as the molecule, how does the IC50 [1] read?
The IC50 was 0.52 µM.

What about the IC50 [2] of the same molecule?
The IC50 was 0.043 µM.

How did the IC50 [1] turn out when `NS(=O)(=O)c1ccc(NN=C2C(=O)Nc3ccc(S(=O)(=O)O)cc32)cc1` was run?
Its IC50 is 0.13 µM.

And the IC50 [2]?
The IC50 was 0.015 µM.

Which IC50 [1] does the source give for `NS(=O)(=O)c1ccc(N/C=C2\C(=O)Nc3cc(CO)ccc32)cc1` here?
Its IC50 is 0.74 µM.

What about the IC50 [2] of the same molecule?
The IC50 was 0.061 µM.

How did the IC50 [1] turn out when `NS(=O)(=O)c1ccc(N/N=C2\C(=O)Nc3cccc(/C=C/c4ccc(O)cc4)c32)cc1` was run?
The IC50 was 0.17 µM.

`O=C1Nc2ccc3ncsc3c2/C1=C/Nc1ccc(S(=O)(=O)Nc2ccccn2)cc1` was tested. Which IC50 [1] did it give?
The IC50 was 0.1 µM.

How did the IC50 [1] turn out when `CC(C)=Cc1cccc2c1C(=NNc1ccc(S(N)(=O)=O)cc1)C(=O)N2` [GW396574X] was run?
Its IC50 is 0.015 µM.

And the IC50 [2]?
Its IC50 is 0.0015 µM.

Which IC50 [1] does the source give for `NS(=O)(=O)c1ccc(NN=C2C(=O)Nc3ccc(I)cc32)cc1` here?
The IC50 was 0.095 µM.

What about the IC50 [2] of the same molecule?
Its IC50 is 0.011 µM.

For `COCCOCCOCCOCCNS(=O)(=O)c1ccc(N/C=C2\C(=O)Nc3ccc4ncsc4c32)cc1`, which IC50 [1] is on record?
Its IC50 is 0.072 µM.

What about the IC50 [2] of the same molecule?
The IC50 was 0.0045 µM.

`C/C(Nc1ccc(S(N)(=O)=O)cc1)=C1/C(=O)Nc2ccc(-c3cnco3)cc21` was tested. Which IC50 [1] did it give?
The IC50 was 0.0071 µM.

What about the IC50 [2] of the same molecule?
Its IC50 is 0.002 µM.

With `NS(=O)(=O)c1ccc(NN=C2C(=O)Nc3ccc(C(=O)NCCCn4ccnc4)cc32)cc1` [GW290597X] as the molecule, how does the IC50 [1] read?
Its IC50 is 0.23 µM.

And the IC50 [2]?
The IC50 was 0.025 µM.

For `NS(=O)(=O)c1ccc(NN=C2C(=O)Nc3cccc([N+](=O)[O-])c32)cc1`, which IC50 [1] is on record?
The IC50 was greater than 1 µM.

What about the IC50 [2] of the same molecule?
The IC50 was 2.4 µM.

What does the source list for `CS(=O)(=O)c1ccc2c(c1)C(=NNc1ccc(S(N)(=O)=O)cc1)C(=O)N2`?
IC50 [1]: 0.35 µM; IC50 [2]: 0.016 µM

For `CNS(=O)(=O)Cc1ccc(NN=C2C(=O)Nc3ccc4ncsc4c32)cc1`, which IC50 [1] is on record?
Its IC50 is 0.056 µM.

Which IC50 [1] does the source give for `CNS(=O)(=O)c1ccc(N/C=C2\C(=O)Nc3ccccc32)cc1` here?
The IC50 was 2.9 µM.

With `O=C1Nc2ccccc2/C1=C/Nc1ccc(S(=O)(=O)Nc2nccs2)cc1` as the molecule, how does the IC50 [1] read?
Its IC50 is 3.8 µM.
